Assay results from US20050245399A1, “Pyrazole derivatives as herbicidal compositions containing them” (ISHIHARA SANGYO KAISHA, LTD., priority 2004, published 2005).

Columns and labels:
Assay type in all cases: in vivo
[1] = system: rice (Oryza sativa L.), ORYSA; test: Test Example 2 post-emergence (foliage treatment) herbicidal activity, ORYSA; conditions: 63 g a.i./ha
Summary of the method: (§1)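 Greenhouse pot test with upland field soil. Treatment: foliage spray, active ingredient at a predetermined amount, 500 L/ha, spreader 0.1% (v/v); leaf stage 0.1-1.5 (AMARE), 1.1-2.1 (ECHCG), 1.0-2.0 (DIGSA), 1.0-2 (ORYSA). Endpoint: visual % control, d20-23.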

[2] = system: japanese ribbon wapato (Sagittaria pygmaea: SA GPY); test: Test Example 3 water application herbicidal activity (paddy), SAGPY; conditions: 63 g a.i./ha, water application under submerged condition, tubers planted, visually observed 14th day after application; 0 = untreated control, 100 = complete kill
Text: (§2) Paddy field soil was put into a 1/1,000,000 ha pot and seeds of barnyardgrass (Echinochiloa oryzicola: ECHOR) and japanese bulrush (Scirpus juncoides: SCPJO) were sown and slightly covered with soil. Then the pot was left to stand still in a greenhouse in a state where the depth of flooding water was from 0.5 to 1 cm, and one day later, tubers of japanese ribbon wapato (Sagittaria pygmaea: SA GPY) were planted. Thereafter, the depth of flooding water was maintained at a level of from 3 to 4 cm, and when barnyardgrass and japanese bulrush reached a 0.5 leaf stage, an aqueous diluted solution of a wettable powder or emulsifiable concentrate having the compound of the present invention formulated in accordance with a usual formulation method, was uniformly applied under submerged condition by a pipette so that the dose of the active ingredient would be at a predetermined level. On the other hand, paddy filed soil was put into a 1/1,000,000 ha pot and puddled and leveled, and the depth of flooding water was from 3 to 4 cm. One day later, rice (Oryza sativa L.: ORYSA) of 2 leaf stage was transplanted in a depth of 3 cm. On the 4th day after the transplantation, the compound of the present invention was applied in the same manner as described above. On the 14th day after the application of the herbicide, the growth of barnyardgrass, japanese burlush and japanese ribbon wapato was visually observed and on the 21st day after the application of the herbicide, the growth of rice was visually observed, and the herbicidal effects were evaluated by growth controlling degrees (%) ranging from 0 (equivalent to the untreated control) to 100 (complete kill), whereby the results shown in Table 6, were obtained. Compound Nos. in Table 6 correspond to Compound Nos. in Table 1 and 2 given hereinbefore.

[3] = system: barnyardgrass (Echinochloa crus-galli L.), ECHCG; test: Test Example 2 post-emergence (foliage treatment) herbicidal activity, ECHCG; conditions: 63 g a.i./ha
Summary of the method: as §1

[4] = system: corn (Zea mays L.), ZEAMX; test: Test Example 2 post-emergence (foliage treatment) herbicidal activity, ZEAMX; conditions: 63 g a.i./ha
Summary of the method: (§3)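 Each species was evaluated for growth suppression by eye, 0% matching untreated and 100% meaning death, some 20 to 23 days after a single post-emergence foliar treatment applied in 500 L/ha of water carrying 0.1% (v/v) agricultural spreader.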

[5] = system: barnyardgrass (Echinochiloa oryzicola: ECHOR); test: Test Example 3 water application herbicidal activity (paddy), ECHOR; conditions: 63 g a.i./ha, water application under submerged condition at 0.5 leaf stage, visually observed 14th day after application; 0 = untreated control, 100 = complete kill
Text: as §2

[6] = system: crabgrass (Digitaria sanguinalis L.): DIGSA; test: Test Example 1 pre-emergence herbicidal activity, DIGSA; conditions: Rate 63 g a.i./ha, visually observed 20th to 23rd day after application
Summary of the method: (§4)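 Compound was delivered by small sprayer to sown upland soil one day after sowing, before emergence, at 500 L/ha spray volume. Plant growth was assessed visually around 3 weeks later (days 20–23), 100% denoting complete kill.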

[7] = system: prickly sida (Sida spinosa L.): SEDSP; test: Test Example 1 pre-emergence herbicidal activity, SIDSP; conditions: Rate 63 g a.i./ha, visually observed 20th to 23rd day after application
Summary of the method: as §4

[8] = system: rice (Oryza sativa L.): ORYSA; test: Test Example 1 pre-emergence herbicidal activity, ORYSA; conditions: Rate 63 g a.i./ha, visually observed 20th to 23rd day after application
Summary of the method: as §4

[9] = system: redroot pigweed (Amaranthus retroflexus L.): AMARE; test: Test Example 1 pre-emergence herbicidal activity, AMARE; conditions: Rate 63 g a.i./ha, visually observed 20th to 23rd day after application
Summary of the method: as §4

[10] = system: green foxtail (Setaria viridis L.): SETVI; test: Test Example 1 pre-emergence herbicidal activity, SETVI; conditions: Rate 63 g a.i./ha, visually observed 20th to 23rd day after application
Summary of the method: as §4

[11] = system: wheat (Triticum aestivum L.), TRZAX; test: Test Example 2 post-emergence (foliage treatment) herbicidal activity, TRZAX; conditions: 63 g a.i./ha
Summary of the method: as §3

[12] = system: corn (Zea mays L.): ZEAMX; test: Test Example 1 pre-emergence herbicidal activity, ZEAMX; conditions: Rate 63 g a.i./ha, visually observed 20th to 23rd day after application
Summary of the method: as §4

[13] = system: barnyardgrass (Echinochloa crus-galli L.): ECHCG; test: Test Example 1 pre-emergence herbicidal activity, ECHCG; conditions: Rate 63 g a.i./ha, visually observed 20th to 23rd day after application
Summary of the method: as §4

[14] = system: soybean (Glycine max Merr.): GLXMA; test: Test Example 1 pre-emergence herbicidal activity, GLXMA; conditions: Rate 63 g a.i./ha, visually observed 20th to 23rd day after application
Summary of the method: as §4

[15] = system: velvetleaf (Abutilon theophrasti): ABUTH; test: Test Example 1 pre-emergence herbicidal activity, ABUTH; conditions: Rate 63 g a.i./ha, visually observed 20th to 23rd day after application
Summary of the method: as §4

[16] = system: prickly sida (Sida spinosa L.), SIDSP; test: Test Example 2 post-emergence (foliage treatment) herbicidal activity, SIDSP; conditions: 63 g a.i./ha
Summary of the method: as §3

[17] = system: soybean (Glycine max Merr.), GLXMA; test: Test Example 2 post-emergence (foliage treatment) herbicidal activity, GLXMA; conditions: 63 g a.i./ha
Summary of the method: as §3

[18] = system: wheat (Triticum aestivum L.): TRZAX; test: Test Example 1 pre-emergence herbicidal activity, TRZAX; conditions: Rate 63 g a.i./ha, visually observed 20th to 23rd day after application
Summary of the method: as §4

[19] = system: velvetleaf (Abutilon theophrasti), ABUTH; test: Test Example 2 post-emergence (foliage treatment) herbicidal activity, ABUTH; conditions: 63 g a.i./ha
Summary of the method: as §3

[20] = system: japanese bulrush (Scirpus juncoides: SCPJO); test: Test Example 3 water application herbicidal activity (paddy), SCPJO; conditions: 63 g a.i./ha, water application under submerged condition at 0.5 leaf stage, visually observed 14th day after application; 0 = untreated control, 100 = complete kill
Text: as §2

[21] = system: green foxtail (Setaria viridis L.), SETVI; test: Test Example 2 post-emergence (foliage treatment) herbicidal activity, SETVI; conditions: 63 g a.i./ha
Summary of the method: as §3

[22] = system: crabgrass (Digitaria sanguinalis L.), DIGSA; test: Test Example 2 post-emergence (foliage treatment) herbicidal activity, DIGSA; conditions: 63 g a.i./ha
Summary of the method: as §1

[23] = system: redroot pigweed (Amaranthus retroflexus L.), AMARE; test: Test Example 2 post-emergence (foliage treatment) herbicidal activity, AMARE; conditions: 63 g a.i./ha
Summary of the method: as §1

Compound | growth controlling degree, ORYSA [1] [%] | growth controlling degrees (%) SAGPY [2] [%] | growth controlling degree, ECHCO [3] [%] | growth controlling degree, ZEAMX [4] [%] | growth controlling degrees (%) ECHOR [5] [%] | Pre-emergence Herbicidal Activity DIGSP (growth controlling degree) [6] [%] | Pre-emergence Herbicidal Activity SIDSP (growth controlling degree) [7] [%] | Pre-emergence Herbicidal Activity ORYSA (growth controlling degree) [8] [%] | Pre-emergence Herbicidal Activity AMARE (growth controlling degree) [9] [%] | Pre-emergence Herbicidal Activity SETVI (growth controlling degree) [10] [%] | growth controlling degree, TRZAX [11] [%] | Pre-emergence Herbicidal Activity ZEAMX (growth controlling degree) [12] [%] | Pre-emergence Herbicidal Activity ECHCG (growth controlling degree) [13] [%] | Pre-emergence Herbicidal Activity GLXMA (growth controlling degree) [14] [%] | Pre-emergence Herbicidal Activity ABUTH (growth controlling degree) [15] [%] | growth controlling degree, SIDSP [16] [%] | growth controlling degree, GLXMA [17] [%] | Pre-emergence Herbicidal Activity TRZAX (growth controlling degree) [18] [%] | growth controlling degree, ABUTH [19] [%] | growth controlling degrees (%) SCPJO [20] [%] | also measured
COc1c(Cl)cc(F)c(-c2nn(C)c(OC(F)F)c2Cl)c1NC(=O)OCc1ccccc1 [Compound 1-71] | 80 | 100 | 100 | 70 | 100 | 100 | 100 | 60 | 100 | 100 | 60 | 30 | 98 | 10 | 100 | 100 | 80 | 30 | 100 | 70 | 
COc1c(Cl)cc(F)c(-c2nn(C)c(OC(F)F)c2Cl)c1NC(=O)OCCN(C)C [Compound 1-66] | 50 | 0 | 20 | 40 | 90 | 20 | 20 | 0 |  | 10 | 20 | 0 | 0 | 0 | 20 | 100 | 60 | 0 | 100 | 30 | growth controlling degree, SETVI [21]: 60%; growth controlling degree, DIGSP [22]: 40%
COc1c(Cl)cc(F)c(-c2nn(C)c(OC(F)F)c2Cl)c1NC(=O)Oc1ccccc1 [Compound 1-67] | 60 | 100 | 70 | 30 | 100 | 100 | 80 | 40 | 100 | 100 | 30 | 0 | 50 | 0 | 70 | 100 | 70 | 10 | 100 | 100 | growth controlling degree, DIGSP [22]: 70%; growth controlling degree, AMARE [23]: 100%
